The values below are quoted from earlier work in patent publication US20070293700A1, “Process for the Preparation of Gabapentin” (Zambon Group S.P.A., priority 2004, published 2007).

The conditions of series [1]: pH at which the isoelectric point is reached.

The structures appear in SMILES notation. Like-named read-outs stand apart in the source and are kept apart here.

Take `NCC1(CC(=O)O)CCCCC1` [gabapentin, 1-(aminomethyl)-cyclohexaneacetic acid]: the solubility in water entry runs as follows: (0° C.) “about 8.5%”; (temperature of 20° C.) around 11%. In addition, the “isoelectric point (pH)” value in series [1] is 7.14.
